The results in this text go back to ChEMBL document CHEMBL1143841, “Improved assessment of plasmodium vivax response to antimalarial drugs by a colorimetric double-site plasmodium lactate dehydrogenase antigen capture enzyme-linked immunosorbent assay” (Antimicrob Agents Chemother, 2007).

Common to all, as to assay type: functional, organism-based
The subject of experiment [1] is Plasmodium vivax. In words: Growth inhibition of Plasmodium vivax isolate 1 assessed as parasite LDH synthesis after 48 hrs by double-site Plasmodium LDH antigen capture enzyme-linked immunosorbent assay.
The test system of experiment [2] is Plasmodium vivax. In words: Growth inhibition of Plasmodium vivax isolate 2 assessed as parasite LDH synthesis after 48 hrs by double-site Plasmodium LDH antigen capture enzyme-linked immunosorbent assay.
Experiment [3] concerns Plasmodium vivax. In words: Growth inhibition of Plasmodium vivax isolate 3 assessed as parasite LDH synthesis after 48 hrs by double-site Plasmodium LDH antigen capture enzyme-linked immunosorbent assay.
In experiment [4] the test system is Plasmodium vivax. In words: Growth inhibition of Plasmodium vivax isolate 4 assessed as parasite LDH synthesis after 48 hrs by double-site Plasmodium LDH antigen capture enzyme-linked immunosorbent assay.

With `CCN(CC)CCCC(C)Nc1ccnc2cc(Cl)ccc12` (centres undefined) [CHLOROQUINE], the IC50 (as a rule, the point on the concentration scale where inhibition reaches its midpoint) with Plasmodium vivax [1] amounted to 5.5 nM; with Plasmodium vivax [2] it was 11.9 nM; with Plasmodium vivax [3], 89.9 nM; with Plasmodium vivax [4], 180 nM.
